# Experimental data as given in patent US5166198A, “Antiviral phosphonylalkoxy purines” (Beecham p.l.c., priority 1989, dated 1992).
# Assays:
# Assay type in all cases: cell-based
# [1] = tested on: varicella zoster virus (VZV; Ellen strain); test: Plaque Reduction Test for Varicella Zoster-Virus (in MRC-5 cells); settings: Human alphaherpesvirus 3, MRC5; Ellen strain in MRC-5 cells
# Method: 2. Plaque Reduction Test for Varicella Zoster-Virus
# (§1) MRC-5 cells were grown to confluence in 24 well multi-dishes (well diameter=1.5 cm). The drained cell monolayers were each infected with approximately 50 infectious particles of varicella zoster virus (VZV; Ellen strain) in 100 μl of phosphate-buffered saline. The virus was adsorbed for 1 hour at room temperature. After adsorption, residual inoculum was removed from each well and replaced with 0.5 ml of Eagle's MEM containing 5% heat-inactivated foetal calf serum and 0.9% agarose (A37). Once the agarose had set, dilutions of the test compound, which had been prepared in Eagle's MEM (containing 5% heat-inactivated foetal calf serum), were added, each well receiving 0.5 ml of liquid overlay. The test compound was diluted to give the following series of concentrations: 200, 60, 20, 6 . . . 0.06 μg/ml; final concentrations in the assay ranged, therefore, between 100 μg/ml and 0.03 μg/ml. The infected cultures were incubated at 37° C. in a humidified atmosphere of 5% CO2 until plaques were clearly visible (5 or 6 days).
# (§2) Cultures from 1 and 2 were fixed in formal saline, the agarose overlays were carefully washed off, and then the cell monolayers were stained with carbol fuchsin. A stereo microscope was used to count plaques. The IC50 (concentration of drug which inhibits the number of plaques formed by 50% relative to the number of plaques observed in virus control monolayers) of the test compound was calculated. In addition, the monolayers were examined for evidence of drug-induced cytotoxicity; the minimum concentration at which cytotoxicity occurs was recorded.
# [2] = tested on: visna virus (strain K184); test: CPE Inhibition Test (Established Monolayer) for Lentiviruses (in SCP cells); settings: Visna-maedi virus, read-out: MIC Visna Virus (minimum concentration giving complete protection of the cell monolayers)
# Method: 3. CPE Inhibition Test (Established Monolayer) for Lentiviruses
# 3×10^4 sheep choroid plexus (SCP) cells were plated into individual wells of a 96 well microtitre plate in 100 μl of Eagle's MEM with Hanks' salts containing 10% heat inactivated foetal calf serum (FCS). When monolayers had become established (after 1 or 2 days growth) they were washed with 200 μl of maintenance medium (Eagle's MEM with Hanks' salts containing 0.5% FCS) and infected with 100 μl of visna virus (strain K184) in maintenance medium (30 TCID50 /ml). Test samples were diluted with maintenance medium in further 96 well microtitre plates over the range 200-0.06 μg/ml by 3-fold dilution steps. 100 μl of the diluted samples was then transferred directly onto virus-infected monolayers (final concentration range therefore […]) and incubated at in a humidified atmosphere containing 5% CO2 until virus-induced CPE was maximal in the untreated virus-infected controls (usually 12-14 days). The plates were fixed with formal saline and stained with crystal violet. Virus-induced CPE was then scored microscopically and the minimum concentration of sample giving complete protection of the cell monolayers (MIC) determined.
# [3] = tested on: herpes simplex virus 2 (HSV-2; strain MS); test: Plaque Reduction Test for Herpes Simplex Virus 2 (in MRC-5 cells); settings: Human alphaherpesvirus 2, MRC5; MS strain in MRC-5 cells; read-out: IC50 Herpes Simplex virus Type 2
# Method: (§3) 1. Plaque Reduction Test for Herpes Simplex Viruses 1 and 2.
# as §1, with “Cells (Vero or MRC-5)” for “MRC-5 cells”, “herpes simplex” for “varicella zoster”, “1 (HSV-1; strain HFEM) or herpes simplex virus 2 (HSV-2; strain MS)” for “(VZV; Ellen strain)”, “newborn” for “heat-inactivated foetal”, “(2” for “(5”, “3 days for Vero cells, usually 1 day for MRC-5 cells).” for “6 days).”
# as §2
# [4] = tested on: herpes simplex virus 1 (HSV-1; strain HFEM); test: Plaque Reduction Test for Herpes Simplex Virus 1 (in Vero cells); settings: Human alphaherpesvirus 1, read-out: IC50 Herpes Simplex virus Type 1
# Method: as §3
# as §1, with “Cells (Vero or MRC-5)” for “MRC-5 cells”, “herpes simplex” for “varicella zoster”, “1 (HSV-1; strain HFEM) or herpes simplex virus 2 (HSV-2; strain MS)” for “(VZV; Ellen strain)”, “newborn” for “heat-inactivated foetal”, “(2” for “(5”, “3 days for Vero cells, usually 1 day for MRC-5 cells).” for “6 days).”
# as §2
Structure (SMILES),IC50 [1],MIC [2],IC50 [3],IC50 [4]
"Nc1nc2c(ncn2OCCCP(=O)(O)O)c(=O)[nH]1 [Example 1, 9-(3-Phosphonopropoxy)guanine]",73 µg/mL,3 µg/mL,> 100 µg/mL,> 100 µg/mL
"Nc1nc2c(ncn2OCCCCP(=O)(O)O)c(=O)[nH]1 [Example 3, 9-(4-Phosphonobutoxy)guanine]",6 µg/mL,1 µg/mL,23 µg/mL,62 µg/mL
"Nc1nc(N)c2ncn(OCCCCP(=O)(O)O)c2n1 [Example 5, 2,6-Diamino-9-(4-phosphonobutoxy)purine]",17 µg/mL,10 µg/mL,> 100 µg/mL,> 100 µg/mL
"Nc1ncnc2c1ncn2OCCCCP(=O)(O)O [Example 7, 9-(4-Phosphonobutoxy)adenine]",> 100 µg/mL,100 µg/mL,> 100 µg/mL,> 100 µg/mL
Nc1ncnc2c1ncn2OC(CO)CCP(=O)(O)O (stereo not shown) [Example 11],> 100 µg/mL,30 µg/mL,> 100 µg/mL,> 100 µg/mL
"Nc1nc2c(ncn2OCC(O)CCP(=O)(O)O)c(=O)[nH]1 (stereo not shown) [Example 13, 9-(2-Hydroxy-4-phosphonobutoxy)guanine]",29 µg/mL,10 µg/mL,> 100 µg/mL,> 100 µg/mL
"Nc1ncnc2c1ncn2OCC(O)CCP(=O)(O)O (stereo not shown) [Example 15, 9-(2-Hydroxy-4-phosphonobutoxy)adenine]",> 100 µg/mL,100 µg/mL,> 100 µg/mL,> 100 µg/mL
"Nc1nc2c(ncn2OC(CO)CCP(=O)(O)O)c(=O)[nH]1 (stereo not shown) [Example 16, 9-[1-(Hydroxymethyl)-3-phosphonopropoxy]guanine]",> 100 µg/mL,100 µg/mL,> 100 µg/mL,> 100 µg/mL
"Nc1nc2c(ncn2OCC(CO)CCP(=O)(O)O)c(=O)[nH]1 (stereo not shown) [Example 18, 9-[2-(Hydroxymethyl)-4-phosphonobutoxy]guanine]",5 µg/mL,1 µg/mL,> 100 µg/mL,> 100 µg/mL
Nc1nc(N)c2ncn(OCC(CO)CCP(=O)(O)O)c2n1 (stereo not shown) [Example 20],17 µg/mL,10 µg/mL,> 100 µg/mL,> 100 µg/mL
